This is an account of results in patent publication US5902583A, “Genetic induction of receptors for targeted radiotherapy” (priority 1997, dated 1999).

“Also recorded” adds a separate entry of the source. Where two headings read alike, the source gives them in different places.

Series [1] deals with murine gastrin releasing peptide receptor (mGRP-R). The experiment in a line: Radiolabeled bombesin binding after adenovirus-polylysine-mediated transfection of GRPr. The conditions noted are these: AdpL, versus uninfected controls. The text has this:
Next, gene mediated expression of receptors was applied in the context of inducing expression of a receptor that could be targeted with a radiolabeled peptide and thus employed the gene encoding the murine gastrin releasing peptide receptor (mGRP-R). The first technique utilized the methodology of an adenovirus-polylysine-mediated transfection (AdpL) to accomplish transient gene expression of mGRP-R in human lung cancer cells.

Another series deals with murine IL-4 receptor. The conditions noted are these: cited from earlier work.
For series [2] the following is noted: native somatostatin; cited from earlier work.
Another series concerns human IL-4 receptor. The conditions noted are these: murine ligand; cited from earlier work.
For a further series, the system named is IL-4 receptor. The experiment in a line: Radiolabeled IL-4 binding after adenovirus-polylysine-DNA transduction of IL-4 receptor. The settings on record: adenovirus-polylysine-DNA conjugates.
Another series relates to SSTR2. The settings on record: cited from earlier work.
In another series the test system is mGRPr. Nature of the series: Binding to murine GRP receptor.
Another series has as its system mGRPr expressing cells. The experiment in a line: Internalization and intracellular retention in mGRPr expressing cells. It is filed as cell-based, murine.
In series [3] the test system is SKOV3.ip1 tumors expressing mGRPr. The experiment in a line: Biodistribution and pharmacokinetics of radiolabeled bombesin analogue in mice bearing i.p. SKOV3.ip1 tumors infected with AdCMVGRPr. In kind it is in vivo, human SKOV3.ip1 tumors in athymic nude mice. As to the method:
All biodistribution studies were performed in female Balb/c athymic nude mice obtained at 4-5 weeks of age from Frederick Research Laboratory (Frederick, Md.). The peptide mIP-Des-Met-bombesin(7-13)NH2 was synthesized using solid phase peptide synthesis at the UAB Comprehensive Cancer Center Peptide Synthesis and Analysis Shared Facility and has been described elsewhere. Mice were injected i.p. with 2×10^7 SKOV3.ip1 human ovarian carcinoma cells. Five days following cell inoculation, mice were injected i.p. with 1×10^9 pfu of a recombinant adenoviral vector expressing mGRPr. Animals were then injected i.p. 48 hours later with 2 μCi of [^125 I]-mIP bombesin. Mice were sacrificed at 0.5, 2, 5, 15, 30 min and 1, 4, 8, 12 and 24 hours following peptide injection (n=4-10/group) and the following organs were dissected: blood, heart, lungs, liver, stomach, small intestine, spleen, kidney, skin, bone, muscle, uterus, peritoneal lining and thyroid. In addition, tumor nodules were removed from each mouse. All organs, and tumors were weighed and the activity counted in a gamma counter. The % ID/g for each tissue was calculated except for the thyroid in which only the % ID was determined.
Descriptive statistics were calculated to examine the distribution and variation of time concentration of radiolabeled antibody and peptide, and tissue to blood ratio data (means and standard deviations). Means at each specific time point were calculated from multiple mice data for both tissue concentration and tissue to blood ratios. Mean concentration data (% ID/g) over time was used for pharmacokinetical modeling. The pharmacokinetical parameters were estimated by using the NLIN procedure of Statistical Analysis System programs. Selection of models was based on comparison of Akaike's Information Criterion, the minimization of the model's mean squared error and standard error of the estimated model parameters, and the graphical diagnostics of the model fit.
Four different pharmacokinetic models, including one and two compartment elimination models along with one and two-compartment models with an absorption phase were required to fit the time concentration curves for the peptide. […] For each of these, the elimination t1/2 was calculated along with Cmax and AUC. A one-compartment model with an absorption phase was determined to be the best model for abdominal lining and muscle data. For each of these, the elimination t1/2 values for each compartment were calculated along with Cmax and AUC. A two-compartment model with an absorption phase was the best model for blood, kidney, and small intestine data. For each of these, elimination t1/2 values for each compartment and the absorption t1/2 value was calculated along with Cmax, Tmax and AUC.

Regarding “^125 I-labeled bombesin: ^125 I-labeled bombesin”, the “radiolabeled bombesin binding to transduced cells” value in series [1] is “specific binding; also recorded: successfully demonstrated”.
On to human IL-4: human IL-4, for which the “binding to the murine receptor” value in the series on murine IL-4 receptor (human IL-4) is listed as “does not exhibit binding”.
As for `C[C@H](N)C(=O)NCC(=O)N[C@H]1CSSC[C@@H](C(=O)O)NC(=O)[C@H](CO)NC(=O)[C@H]([C@@H](C)O)NC(=O)[C@H](Cc2ccccc2)NC(=O)[C@H]([C@@H](C)O)NC(=O)[C@H](CCCCN)NC(=O)[C@H](Cc2c[nH]c3ccccc23)NC(=O)[C@H](Cc2ccccc2)NC(=O)[C@H](Cc2ccccc2)NC(=O)[C@H](CC(N)=O)NC(=O)[C@H](CCCCN)NC1=O` [Somatostatin], the plasma half-life result in series [2] is reported as “minutes”.
As for “Murine IL-4: glycoprotein with an approximate molecular weight of 19 kD”, the “binding to the human receptor” value with human IL-4 receptor is “does not exhibit binding”.
For “^125 I-labeled IL-4: ^125 I-labeled IL-4”, the “radiolabeled IL-4 binding to transduced cells” value in the series on IL-4 receptor was “specific binding”. Also, the Ka with murine IL-4 receptor (^125 I-IL-4, transduced COS-7 cells) is reported as 10^9 -10^10 M^-1.
For the compound `C[C@@H](O)[C@@H]1NC(=O)[C@H](CCCCN)NC(=O)[C@@H](Cc2c[nH]c3ccccc23)NC(=O)[C@H](Cc2ccccc2)NC(=O)[C@@H](NC(=O)[C@H](N)Cc2ccccc2)CSSC[C@@H](C(=O)N[C@H](CO)[C@@H](C)O)NC1=O` [Octreotide], the “binding to SSTR2” value with SSTR2 is reported as “binds with high affinity”.
The term Tmax denotes the time from dosing to the highest level. Consider “[^125 I]-mIP-Des-Met^14 -bombesin(7-13)NH2 [[^125 I]-mIP-bombesin]”, for which, in the series on mGRPr, the “binding to mGRPr” value was “high affinity binding”. Also, the “internalization versus [^125 I]-Tyr-bombesin” value in the series with mGRPr expressing cells is listed as “higher internalization”. Further, the “intracellular retention versus [^125 I]-Tyr-bombesin” value in the series with mGRPr expressing cells is reported as “longer intracellular retention”; in the series with mGRPr expressing cells (listed as modified seven amino acid analogue of bombesin), “longer retention time within cells”. In addition, the “concentration in tumor (highest)” value in series [3] (30 sec after injection, 0.5 min) stood at 33.6±18.2 % ID/g. In addition, the “tumor to blood ratio relative to antibody” value in [3] (30 sec, versus e21) was found to be 24.8 fold; in [3] (24 hours, versus e21), 15.4 fold. Besides, the “tumor localization at 4 hours post injection versus [^125 I]-Tyr-bombesin” value in series [3] (4 hours post injection) was “much greater”. This compound gave a concentration in tumor in series [3] (24 hours after injection) of 2.5±2.8 % ID/g. Further, the AUC is listed as 160.9 percent ID × h/g in series [3] (abdominal lining); 8.0 percent ID × h/g in series [3] (blood); 12.8 percent ID × h/g in series [3] (bone); 8.3 percent ID × h/g in series [3] (heart); 44.8 percent ID × h/g in series [3] (kidney); 49.2 percent ID × h/g in series [3] (liver). Moreover, the AUC in series [3] (lung) came to 7.6 percent ID × h/g; in [3] (muscle), 12.4 percent ID × h/g; in [3] (skin), 5.9 percent ID × h/g; in [3] (small intestine), 112 percent ID × h/g; in [3] (spleen), 71.7 percent ID × h/g; in [3] (stomach), 172.3 percent ID × h/g. For the same compound, the AUC in series [3] (tumor) was determined as 193.1 percent ID × h/g; in series [3] (uterus), 182.8 percent ID × h/g. The Cmax was determined as 47.7 percent ID/g in series [3] (abdominal lining); 1.5 percent ID/g in series [3] (blood); 1.1 percent ID/g in [3] (bone); 0.9 percent ID/g in series [3] (heart); 15.3 percent ID/g in series [3] (kidney); 9.8 percent ID/g in [3] (liver). In addition, the Cmax in [3] (lung) is 1.3 percent ID/g; in [3] (muscle), 3.6 percent ID/g; in series [3] (skin) it was 1.0 percent ID/g; in series [3] (small intestine), 41.7 percent ID/g; in [3] (spleen), 10.9 percent ID/g; in series [3] (stomach), 10.2 percent ID/g. Further, the Cmax was found to be 25.6 percent ID/g in series [3] (tumor) and 29.2 percent ID/g in series [3] (uterus). Besides, the t1/2α in series [3] (abdominal lining) is 0.1 h; in series [3] (blood), 0.8 h; in series [3] (kidney), 0.4 h; in series [3] (muscle) it was 0.6 h; in series [3] (small intestine), 0.6 h. Besides, the t1/2β in series [3] (abdominal lining) came out at 6.5 h; in series [3] (blood), 6.7 h; in series [3] (bone), 7.9 h; in series [3] (heart), 6.6 h; in series [3] (kidney) it was 4.7 h; in series [3] (liver), 3.5 h. Also, the t1/2β was 4.1 h in series [3] (lung); 7.7 h in series [3] (muscle); 3.7 h in [3] (skin); 8.3 h in [3] (small intestine); 4.6 h in series [3] (spleen); 11.7 h in [3] (stomach). The compound also came in with a t1/2β in series [3] (uterus) of 4.3 h. Further, the Tmax was found to be 0.6 h in [3] (blood); 0.5 h in series [3] (kidney); 0.05 h in series [3] (lung); 0.4 h in series [3] (skin); 0.3 h in [3] (small intestine); 0.05 h in [3] (stomach). Also, the “tumor to blood ratio” value in series [3] (level after drop from initial peak and rise) is “about 50”. The “t1/2β (clearance half-life)” value in [3] (tumor) worked out at 5.2 h. Further, the “peak tumor to blood ratio, bombesin analogue relative to antibody” value in [3] (versus e21) is given as 12.6 fold.
